ChEMBL document CHEMBL2424638, “6-Bromo-8-(4-[(3)H]methoxybenzamido)-4-oxo-4H-chromene-2-carboxylic Acid: a powerful tool for studying orphan G protein-coupled receptor GPR35” (J Med Chem, 2013)

Experiments:
[1] = target: T1, G-protein coupled receptor 35 (Homo sapiens, UniProt Q9HC97); assay: biochemical; format: cell-based, CHO
Description: Displacement of [3H]PSB-13253 from human recombinant GPR35 exprssed in CHO cells by liquid scintillation counting analysis

[2] = target: T1, G-protein coupled receptor 35; assay: Agonist activity at C-terminal beta-galactosidase tagged human recombinant GPR35 expressed in CHO cells at 100 uM after 90 mins by beta-arrestin recruitment assay relative to zaprinast; format: cell-based
[3] = target: T1, G-protein coupled receptor 35; assay: Agonist activity at C-terminal beta-galactosidase tagged human recombinant GPR35 expressed in CHO cells after 90 mins by beta-arrestin recruitment assay; format: cell-based
[4] = target: T1, G-protein coupled receptor 35; assay: Agonist activity at human GPR35 expressed in HEK293T cells at 5 uM by EYPF-based beta-arrestin-2 luciferase reporter gene assay; format: cell-based, HEK-293T
[5] = target: T1, G-protein coupled receptor 35; assay: Antagonist activity at human Gal4-VP16 fused GPR35 expressed in human U2OS cells assessed as beta arrestin translocation by reporter gene assay; format: cell-based
[6] = target: T1, G-protein coupled receptor 35; assay: Antagonist activity at C-terminal beta-galactosidase tagged human recombinant GPR35 expressed in CHO cells after 90 mins by beta-arrestin recruitment assay; format: cell-based
[7] = target: T1, G-protein coupled receptor 35; assay: Antagonist activity at human GPR35 expressed in human HT29 cells after 1 hr by DMR assay; format: cell-based; details: ht-29
[8] = target: T1, G-protein coupled receptor 35; details: CHO, 5 nM
[9] = target: T1, G-protein coupled receptor 35; details: CHO, 5 nM; remark: listed apart in the source
[10] = target: T1, G-protein coupled receptor 35; details: CHO, 5 nM; remark: listed apart in the source
[11] = target: T1, G-protein coupled receptor 35; details: CHO, 5 nM; remark: listed apart in the source
[12] = target: T1, G-protein coupled receptor 35; details: CHO, 5 nM; remark: listed apart in the source
[13] = target: T1, G-protein coupled receptor 35; assay: Agonist activity at human GPR35 expressed in CHO cells assessed as increase in intracellular Ca2+ measured over 20 secs by Aequorin assay; format: functional, cell-based
[14] = target: T1, G-protein coupled receptor 35; assay: Binding affinity to human recombinant GPR35 expressed in CHO cells after 150 mins by liquid scintillation counting analysis
[15] = target: T1, G-protein coupled receptor 35; assay: Competitive binding affinity to human recombinant GPR35 expressed in CHO cells by scintillation counting analysis in presence of CaCl2; format: cell-based
[16] = target: T1, G-protein coupled receptor 35; assay: Competitive binding affinity to human recombinant GPR35 expressed in CHO cells by scintillation counting analysis in presence of MgCl2; format: cell-based
[17] = target: T1, G-protein coupled receptor 35; assay: Binding affinity to human recombinant GPR35 expressed in CHO cells by scintillation counting analysis in absence of MgCl2, NaCl, CaCl2; format: cell-based
[18] = target: T1, G-protein coupled receptor 35; assay: Agonist activity at human GPR35 by Ca+2 release assay
[19] = target: T1, G-protein coupled receptor 35; assay: Agonist activity at human GPR35 by DMR assay
[20] = target: T1, G-protein coupled receptor 35; assay: Displacement of [3H]PSB-13253 from human recombinant GPR35 exprssed in CHO cells at 10 uM by liquid scintillation counting analysis; format: cell-based

T1 sequence (Q9HC97 whole entry): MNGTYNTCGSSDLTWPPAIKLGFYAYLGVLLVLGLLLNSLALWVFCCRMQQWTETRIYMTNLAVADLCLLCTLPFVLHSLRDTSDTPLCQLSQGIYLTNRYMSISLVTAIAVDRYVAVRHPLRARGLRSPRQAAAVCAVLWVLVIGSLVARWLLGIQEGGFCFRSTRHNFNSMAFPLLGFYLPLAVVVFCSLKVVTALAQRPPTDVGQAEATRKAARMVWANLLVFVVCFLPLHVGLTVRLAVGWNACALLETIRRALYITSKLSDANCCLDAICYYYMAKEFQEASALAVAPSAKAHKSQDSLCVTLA

| SMILES | Ki [1] [nM] | other results |
| --- | --- | --- |
| Cc1cccc(C(=O)Nc2cccc3c(=O)cc(C(=O)O)oc23)c1 | 4780 | – |
| O=C(O)c1cc(=O)c2cccc(NC(=O)C3CCCCC3)c2o1 | 3580 | – |
| CCOc1ccc(C(=O)Nc2cc(Br)cc3c(=O)cc(C(=O)O)oc23)cc1 | 98.4 | – |
| CC1=C(C#N)C(=C(C#N)C#N)OC1(C)c1ccc(Cl)c(Cl)c1 (stereo unspecified) | 655 | – |
| Nc1cc(Br)cc2c(=O)cc(C(=O)O)oc12 | 3010 | – |
| O=C(Nc1cccc2c(=O)cc(C(=O)O)oc12)c1ccc2ccccc2c1 | 714 | – |
| O=C(O)c1cc2ccccc2c(Cc2c(O)c(C(=O)O)cc3ccccc23)c1O | – | Emax [2]: 95% |
| Cc1ccc(C(=O)Nc2cccc3c(=O)cc(C(=O)O)oc23)cc1 | 697 | – |
| O=C(Nc1cc(Cl)cc2c(=O)cc(C(=O)O)oc12)c1ccc([N+](=O)[O-])cc1 | 183 | – |
| COc1ccc(C(=O)Nc2cc(F)cc3c(=O)cc(C(=O)O)oc23)cc1 | 25.4 | – |
| COc1ccc(C(=O)Nc2cc(OC)cc3c(=O)cc(C(=O)O)oc23)cc1 | 20.5 | EC50 [3]: 25.5 nM; Emax [2]: 124% |
| O=C(O)c1cc(=O)c2cc(F)cc(NC(=O)c3ccc(Cl)cc3Cl)c2o1 | 4.12 | – |
| COc1ccc(C(=O)Nc2cc(Cl)cc3c(=O)cc(C(=O)O)oc23)cc1 | 5.5 | – |
| O=C(O)c1cc(=O)c2cccc([N+](=O)[O-])c2o1 | 13600 | – |
| O=C(Nc1cc(F)cc2c(=O)cc(C(=O)O)oc12)c1ccc(Cl)c(Cl)c1 | 11.5 | – |
| COc1ccc(C(=O)Nc2cc(Br)cc3c(=O)cc(C(=O)O)oc23)cc1F | 1.64 | EC50 [3]: 4.37 nM; Emax [2]: 120% |
| O=c1oc2ccccc2c(O)c1Cc1c(O)c2ccccc2oc1=O [DICUMAROL] | 39 | EC50 [4]: 1300 nM; EC50 [3]: 9780 nM; Emax [2]: 107% |
| COC(=O)c1cnn(-c2ccc(F)cc2F)c1/C=N/NC(=S)NC(C)(C)C | 42.2 | IC50 [5]: 200 nM; IC50 [6]: 574 nM; IC50 [7]: 10400 nM |
| O=C(Nc1cc(Cl)cc2c(=O)cc(C(=O)O)oc12)c1ccccc1 | 138 | – |

| SMILES | Ki [1] [nM] | other results |
| --- | --- | --- |
| O=C(O)c1cc(=O)c2cc(Br)cc(NC(=O)c3ccc(Cl)cc3Cl)c2o1 | 0.938 | – |
| CCC(=O)Nc1cccc2c(=O)cc(C(=O)O)oc12 | 6770 | – |
| O=C(Nc1cc(Br)cc2c(=O)cc(C(=O)O)oc12)c1ccccc1 | 81.6 | – |
| COc1ccc(C(=O)Nc2cc(Br)cc3c(=O)cc(C(=O)O)oc23)cc1 | 5.18 | T1/2 [8]: 9.91 min; inhibition [9]: 85%; T1/2 [10]: 7.8 min; inhibition [11]: 65%; inhibition [12]: 90% |
| CC(=O)Nc1cccc2c(=O)cc(C(=O)O)oc12 | 18500 | – |
| O=C(Nc1cccc2c(=O)cc(C(=O)O)oc12)c1ccc(Br)cc1 | 233 | – |
| COc1ccc(C(=O)Nc2cc(Cl)cc3c(=O)cc(C(=O)O)oc23)c(F)c1 | 1.92 | EC50 [3]: 6.06 nM; Emax [2]: 111% |
| O=C(Cc1ccccc1)Nc1cccc2c(=O)cc(C(=O)O)oc12 | 2720 | – |
| COc1ccc(C(=O)Nc2cc(Br)cc3c(=O)cc(C(=O)O)oc23)c(Cl)c1 | 1.12 | – |
| CCOC(=O)c1cc(=O)c2cc(F)cc(NC(=O)c3ccc(OC)cc3)c2o1 | 198 | – |
| O=C(O)COc1ccc(/C=C2\SC(=O)NC2=O)cc1 | 50.8 | EC50 [4]: 1400 nM; EC50 [3]: 349 nM; Emax [2]: 107% |
| COc1ccc(C(=O)Nc2cccc3c(=O)cc(C(=O)O)oc23)cc1 | 221 | – |
| O=C(O)c1cc(=O)c2ccccc2[nH]1 [TRANSTORINE] | 137000 | EC50 [13]: 39200 nM |
| O=C(Nc1cccc2c(=O)cc(C(=O)O)oc12)c1ccc(OCC2CC2)cc1 | 3710 | – |
| [3H]C([3H])([3H])Oc1ccc(C(=O)Nc2cc(Br)cc3c(=O)cc(C(=O)O)oc23)cc1 | – | Kd [14]: 5.27 nM; Kd [15]: 5.92 nM; Kd [16]: 5.65 nM; Kd [17]: 115 nM |
| CCCOc1ccc(C(=O)Nc2cccc3c(=O)cc(C(=O)O)oc23)cc1 | 8060 | – |
| O=C(Nc1cccc2c(=O)cc(C(=O)O)oc12)c1ccccc1 | 3290 | – |
| O=C(Nc1cccc2c(=O)cc(C(=O)O)oc12)c1ccc(C(F)(F)F)cc1 | 10300 | – |
| COc1ccccc1C(=O)Nc1cc(Br)cc2c(=O)cc(C(=O)O)oc12 | 331 | – |

| SMILES | Ki [1] [nM] | other results |
| --- | --- | --- |
| NS(=O)(=O)c1cc(C(=O)O)c(NCc2ccco2)cc1Cl | – | Emax [2]: 96% |
| O=C(Nc1cc(Br)cc2c(=O)cc(C(=O)O)oc12)c1ccc(Cl)cc1 | 4.79 | – |
| O=C(Nc1cc(Br)cc2c(=O)cc(C(=O)O)oc12)c1ccc(Cl)c(Cl)c1 | 2.18 | EC50 [3]: 25.1 nM |
| O=C(O)c1cc(=O)c2c(OCC(O)COc3cccc4oc(C(=O)O)cc(=O)c34)cccc2o1 [CROMOLYN] | 2340 | EC50 [18]: 210 nM; Emax [2]: 119%; EC50 [19]: 520 nM |
| COc1ccc(C(=O)Nc2cc(Br)cc3c(=O)cc(C(=O)O)oc23)nc1 | 56.8 | – |
| O=C(O)c1cc(=O)c2cc(F)cc(NC(=O)c3cccc(Cl)c3Cl)c2o1 | 119 | – |
| Cc1cccc(C(=O)Nc2cc(Cl)cc3c(=O)cc(C(=O)O)oc23)c1 | 250 | – |
| Nc1cccc2c(=O)cc(C(=O)O)oc12 | – | inhibition [20]: 7% |
| COc1ccc(C(=O)Nc2cc(Br)cc3c(=O)cc(C(=O)O)oc23)cc1OC | 228 | – |
| COc1ccc(C(=O)Nc2cc(Br)cc3c(=O)cc(C(=O)O)oc23)cn1 | 25.7 | – |
| COc1ccc(C(=O)Nc2cc(Br)cc3c(=O)cc(C(=O)O)oc23)c(F)c1 | 1.37 | EC50 [3]: 4.45 nM; Emax [2]: 120% |
| O=C(Nc1cc(Br)cc2c(=O)cc(C(=O)O)oc12)c1ccc2c(c1)OCO2 | 15 | – |
| COC(=O)CC(=O)Nc1cccc2c(=O)cc(C(=O)O)oc12 | 18600 | – |
| COc1ccc(C(=O)Nc2cc(C)cc3c(=O)cc(C(=O)O)oc23)cc1 | 42.8 | EC50 [3]: 37.7 nM; Emax [2]: 118% |
| N#Cc1ccc(C(=O)Nc2cc(Br)cc3c(=O)cc(C(=O)O)oc23)cc1 | 148 | – |
| O=C(Nc1cccc2c(=O)cc(C(=O)O)oc12)c1cccc([N+](=O)[O-])c1 | 4390 | – |
| Cc1cccc(C(=O)Nc2cc(Br)cc3c(=O)cc(C(=O)O)oc23)c1 | 128 | – |
| COc1cc(F)c(C(=O)Nc2cc(Br)cc3c(=O)cc(C(=O)O)oc23)c(F)c1 | 0.589 | EC50 [3]: 5.54 nM; Emax [2]: 119% |
| O=C(Nc1cccc2c(=O)cc(C(=O)O)oc12)c1ccc2ccccc2n1 | 691 | – |
